Results taken from patent publication US12691070B2, “Cationic lipids and preparation method thereof” (RiboX Therapeutics HK Limited, priority 2023, dated 2026).

Columns and labels:
[1] = RNA encapsulation efficacy by Quant-IT Ribogreen kit; type: physicochemical; details: for Encapsulation Efficiency %: LNP with cirRNA (SEQ ID NO: 1); for Encapsulation Efficiency: LNP with mRNA (SEQ ID NO: 2)
Outline: (§1)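 Dynamic light scattering and zeta potential measurements were run on PBS-dialyzed LNPs, which had been formed by microfluidic mixing at 12 ml/min with final lipid at 1.5 mM to 6 mM. RNA content and percent encapsulation were determined by Ribogreen with and without Triton X-100.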

[2] = LNP size and polydispersity index (PDI) by dynamic light scattering; type: physicochemical; details: for Size: in nm (unit assumed)
Outline: as §1

[3] = tested on: Hep G2 cells; assay: In vitro toxicity (CellTiter-Glo cell viability), Hep G2; type: cell-based;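 note: percent of untreated cells luminescence signal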
Outline: (§2)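 Toxicity of RNA-LNPs (1 μg/mL) is reported as cell viability, calculated from CellTiter-Glo luminescence measured at 72 hours after transfection.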

[4] = tested on: BALB/C mice; assay: Local tolerance determination by footpad injection; type: in vivo; details: cirRNA (SEQ ID NO: 1) LNP, 0.175 mg*kg-1 subcutaneous into the footpad, 24 hours post minus prior
Experimental: 6-8 week old, female BALB/C mice were injected with 0.175 mg*kg-1 RNA LNPs by subcutaneous injection into the footpad. Prior to, and 24 hours post injections, injected footpad thickness was determined by a caliper.

[5] = tested on: Hep G2 cells; assay: In vitro expression of firefly-luciferase, Hep G2; type: cell-based
Outline: (§3)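 First, cells were dosed with RNA lipid nanoparticles encoding firefly luciferase (100 ng/mL). Second, at 72 h they were washed and lysed. Third, lysate luciferase activity was read with a luminometer.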

[6] = tested on: RAW 264.7 cells; assay: In vitro expression of firefly-luciferase, RAW 264.7; type: cell-based
Outline: as §3

[7] = LNP zeta potential (Zetasizer); type: physicochemical
Outline: as §1

[8] = tested on: MCP-I; assay: MCP-I cytokine elevation in serum; type: in vivo; details: cirRNA (SEQ ID NO: 1) LNPs, mice
Experimental: 6-8 week old, female BALB/C mice were injected with 0.5 mg*kg-1 of RNA LNPs by intravenous injection. At 2 and 24 hours post injection, animals were bled and sera concentrations of MCP-I were determined by an immunoassay (Luminex).

[9] = tested on: BALB/C mice; assay: In vivo expression, whole-body luminescence (IVIS)
Experimental: 6-8 week old, female BALB/C mice were injected with 0.05 mg*kg-1 of RNA-LNPs encoding for firefly-luciferase by intravenous injection. At 6 hours post injection, animals were intraperitoneally injected with 15 mg/ml of Luciferin substrate and whole-body luminescence was determined by a bioluminescent in vivo imaging system (IVIS).

[10] = tested on: Alanine Aminotransferase (ALT); assay: Liver enzyme elevation in serum, ALT; type: in vivo; details: cirRNA (SEQ ID NO: 1) LNPs, BALB/C mice, intravenous 0.5 MPK
Experimental: (§4) 6-8 week old, female BALB/C mice were injected with 0.5 mg*kg-1 of RNA LNPs by intravenous injection. At 2 and 24 hours post injection, animals were bled and sera concentrations of Alanine Aminotransferase (ALT) and Aspartate Aminotransferase (AST) were determined by a blood chemistry analyzer.

[11] = tested on: Aspartate Aminotransferase (AST); assay: Liver enzyme elevation in serum, AST; type: in vivo; details: cirRNA (SEQ ID NO: 1) LNPs, BALB/C mice, intravenous 0.5 MPK
Experimental: as §4

[12] = tested on: RAW 264.7 cells; assay: In vitro toxicity (CellTiter-Glo cell viability), RAW 264.7; type: cell-based;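 note: percent of untreated cells luminescence signal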
Outline: as §2

[13] = cirRNA (SEQ ID NO: 1) LNPs, Hep G2 cells
[14] = mRNA (SEQ ID NO: 2) LNP, 1 μg/mL, 72 hours post transfection
[15] = cirRNA (SEQ ID NO: 1) LNPs, firefly-luciferase luminescence, Hep G2 cells
[16] = mRNA (SEQ ID NO: 2) LNP, 100 ng/mL, 72 hours post transfection, luciferase activity
[17] = cirRNA (SEQ ID NO: 1) LNPs, firefly-luciferase luminescence, RAW 264.7 cells
[18] = cirRNA (SEQ ID NO: 1) LNPs, BALB/C mice
[19] = mRNA (SEQ ID NO: 2) LNP, 0.05 mg*kg-1 intravenous, 6 hours post injection
[20] = cirRNA (SEQ ID NO: 1) LNPs, RAW 264.7 cells

Row | Encapsulation Efficiency % [1] [%] | Encapsulation Efficiency [1] [%] | PDI ([2]; LNP with cirRNA (SEQ ID NO: 1)) | Size ([2]; LNP with cirRNA (SEQ ID NO: 1)) | PDI ([2]; LNP with mRNA (SEQ ID NO: 2)) | Size ([2]; LNP with mRNA (SEQ ID NO: 2)) | Zeta (mV) ([7]; LNP with cirRNA (SEQ ID NO: 1)) | Zeta (mV) ([7]; LNP with mRNA (SEQ ID NO: 2)) | MCP-I in Sera 2 hours After 0.5 MPK Injection [8] [pg/mL] | MCP-I in Sera 24 hours After 0.5 MPK Injection [8] [pg/mL] | SMILES | In vitro Viability HepG2 [3, 13] [%] | In vitro Viability HepG2 [3, 14] [%] | Footpad Thickness (24 h−0 h, mm) [4] [mm] | In vitro Expression HepG2 [5, 15] | In vitro Expression HepG2 [5, 16] | In vitro Expression RAW [6, 17] | In vitro Expression RAW [6, 16] | In vivo Expression (Whole Body) [9, 18] | In vivo Expression (Whole Body) [9, 19] | ALT in Sera (IU/L) 2 hours After 0.5 MPK Injection [10] [IU/L] | further results
1 | 96 | 79.87 | 0.14 | 82.64 | 0.07142 | 113.7 | 5.5 | 13.59 | 1958.67 | 122.47 | CCCCCCCCCC(=O)OCCCCCCCN(CCCCCCCCOC(=O)C(CCCCCC)CCCCCCCC)CCOC(=O)NCCN(C)C (stereo not drawn) [Lipid 197] | 88 | 116 | 0.08 | 6.41E+05 | 2.51E+07 | 1.87E+04 | 1.19E+07 | 3.04E+07 | 4.89E+08 | 106.67 | ALT in Sera (IU/L) 24 hours After 0.5 MPK Injection [10]: 171.00 IU/L; AST in Sera (IU/L) 2 hours After 0.5 MPK Injection [11]: 215.67 IU/L; AST in Sera (IU/L) 24 hours After 0.5 MPK Injection [11]: 237.67 IU/L; In vitro Viability RAW [12, 20]: 0%; In vitro Viability RAW [12, 14]: 0%
2 | 86 | 85.53 | 0.12 | 99.5 | 0.1109 | 108.8 | −5.02 | 2.004 | 2543.33 | 342.29 | CCCCC/C=C\CCOC(=O)CCCCCN(CCCCCC(=O)OCC(CCCCCCCC)CCCCCCCCCC)CCOC(=O)NCCN1CCCCC1 (stereo not drawn) [Lipid 245] | 88 | 118 | 0.68 | 7.24E+05 | 4.35E+06 | 2.68E+05 | 3.81E+06 | 2.99E+08 | 1.18E+08 | 136.50 | ALT in Sera (IU/L) 24 hours After 0.5 MPK Injection [10]: 107.33 IU/L; AST in Sera (IU/L) 2 hours After 0.5 MPK Injection [11]: 387.00 IU/L; AST in Sera (IU/L) 24 hours After 0.5 MPK Injection [11]: 187.67 IU/L; In vitro Viability RAW [12, 20]: 94%; In vitro Viability RAW [12, 14]: 89%
3 | 95 | 94.52 | 0.258 | 66.18 | 0.1592 | 101.7 | 3.201 | 6.102 | 4192.67 | 564.30 | CCCCC/C=C\C/C=C\CCCCCCCCN(CCCCCCCC(=O)OC(CCCCCCCC)CCCCCCCC)CCCOC(=O)NCCN(C)C [Lipid 270] | 95 | 116 | 0.65 | 9.88E+06 | 2.31E+07 | 9.33E+06 | 3.27E+06 | 9.90E+07 | 3.45E+08 | 253.00 | ALT in Sera (IU/L) 24 hours After 0.5 MPK Injection [10]: 79.00 IU/L; AST in Sera (IU/L) 2 hours After 0.5 MPK Injection [11]: 477.67 IU/L; AST in Sera (IU/L) 24 hours After 0.5 MPK Injection [11]: 220.00 IU/L; In vitro Viability RAW [12, 20]: 120%; In vitro Viability RAW [12, 14]: 96%

The remaining lines, values behind:

Row | SMILES | Encapsulation Efficiency % [1] [%] | Encapsulation Efficiency [1] [%] | PDI ([2]; LNP with cirRNA (SEQ ID NO: 1)) | Size ([2]; LNP with cirRNA (SEQ ID NO: 1)) | PDI ([2]; LNP with mRNA (SEQ ID NO: 2)) | Size ([2]; LNP with mRNA (SEQ ID NO: 2)) | Zeta (mV) ([7]; LNP with cirRNA (SEQ ID NO: 1)) | Zeta (mV) ([7]; LNP with mRNA (SEQ ID NO: 2)) | MCP-I in Sera 2 hours After 0.5 MPK Injection [8] [pg/mL] | MCP-I in Sera 24 hours After 0.5 MPK Injection [8] [pg/mL] | In vitro Viability HepG2 [3, 13] [%] | In vitro Viability HepG2 [3, 14] [%] | Footpad Thickness (24 h−0 h, mm) [4] [mm] | In vitro Expression HepG2 [5, 15] | In vitro Expression HepG2 [5, 16] | In vitro Expression RAW [6, 17] | In vitro Expression RAW [6, 16] | In vivo Expression (Whole Body) [9, 18] | In vivo Expression (Whole Body) [9, 19] | ALT in Sera (IU/L) 2 hours After 0.5 MPK Injection [10] [IU/L] | further results
4 | CCCCCCCCCCC(CCCCCCCC)COC(=O)CCCCCN(CCCCCC(=O)OCC(CCCCCCCC)CCCCCCCCCC)CCOC(=O)NCCN(C)C (stereo not drawn) [Lipid 170] | 97 | 86.13 | 0.08 | 96.82 | 0.0744 | 165.8 | −0.455 | 3.233 | 1322.04 | 922.24 | 31 | 124 | 0.95 | 2.91E+07 | 2.23E+08 | 3.14E+06 | 2.87E+02 | 3.35E+08 | 1.02E+09 | 62.53 | ALT in Sera (IU/L) 24 hours After 0.5 MPK Injection [10]: 66.47 IU/L; AST in Sera (IU/L) 2 hours After 0.5 MPK Injection [11]: 175.67 IU/L; AST in Sera (IU/L) 24 hours After 0.5 MPK Injection [11]: 120.57 IU/L; In vitro Viability RAW [12, 20]: 92%; In vitro Viability RAW [12, 14]: 82%
5 | CCCCCCCCCC(=O)OCCCCCCCN(CCCCCCCCOC(=O)C(CCCCCC)CCCCCCCC)CCOC(=O)NCCN1CCCC1 (stereo not drawn) [Lipid 195] | 94 | 75.44 | 0.2474 | 94.75 | 0.1254 | 114.3 | 6.123 | 16.37 | 2643.00 | 78.52 | 103 | 116 | 0.56 | 1.62E+05 | 1.23E+07 | 9.03E+03 | 1.67E+07 | 3.91E+07 | 1.63E+08 | 109.00 | ALT in Sera (IU/L) 24 hours After 0.5 MPK Injection [10]: 35.00 IU/L; AST in Sera (IU/L) 2 hours After 0.5 MPK Injection [11]: 264.00 IU/L; AST in Sera (IU/L) 24 hours After 0.5 MPK Injection [11]: 84.67 IU/L; In vitro Viability RAW [12, 20]: 96%; In vitro Viability RAW [12, 14]: 77%
6 | CCCCCCCCCC(=O)OCCCCCCCN(CCCCCCCCOC(=O)C(CCCCCC)CCCCCCCC)CCOC(=O)NCCN1CCCCC1 (stereo not drawn) [Lipid 196] | 93 | 91.87 | 0.0364 | 89.57 | 0.1806 | 117.5 | 0.4256 | −2.076 | 489.33 | 197.30 | 103 | 91 | 0.44 | 5.54E+04 | 1.58E+06 | 1.22E+04 | 2.31E+06 | 1.86E+07 | 1.41E+08 | 80.33 | ALT in Sera (IU/L) 24 hours After 0.5 MPK Injection [10]: 93.00 IU/L; AST in Sera (IU/L) 2 hours After 0.5 MPK Injection [11]: 202.33 IU/L; AST in Sera (IU/L) 24 hours After 0.5 MPK Injection [11]: 180.67 IU/L; In vitro Viability RAW [12, 20]: 91%; In vitro Viability RAW [12, 14]: 110%
